Measured values reported in US20250057959A1, “PHOSPHANE GOLD(I)-N-HETEROCYCLIC CARBENE COMPLEXES FOR TREATING CANCER” (KING FAHD UNIVERSITY OF PETROLEUM AND MINERALS, priority 2023, published 2025).

Test system: A2780cis
Experiment: MTT cell viability assay, cisplatin-resistant A2780cis
Assay type: cell-based, human
Conditions: for Fold resistance (A2780cis/A2780): IC50 A2780cis/IC50 A2780
Excerpt: Human epithelial ovarian cancer A2780 cell line and its cisplatin-resistant clone A2780cis were obtained from Sigma-Aldrich (Milano, Italy). SKOV3 (HTB-77) cells were from the American Type Culture Collection (ATCC). The two cell lines were selected to reflect the two different stages of OvCa and different sensitivity to cisplatin. A2780 cell lines were derived from the ovarian tumor tissue of an untreated patient, while SKOV3 was from the ascitic fluids (after metastasis). […] Cell lines were cultured in RPMI-1640 medium containing 10% fetal bovine serum (FBS) (Gibco, Thermo Fisher Scientific, U.S.A), 1% (v/v) of penicillin (10,000 units/mL)-streptomycin (10 mg/mL), and 1% (v/v) L-glutamine (200 mM) (all from Sigma- Aldrich) at 37° C. in a 5% CO2 fully humidified atmosphere. […] Cisplatin was included as a reference drug. […] Fold resistance was calculated as the ratio of the IC50 of the A2780cis to that of the parental cell line A2780.

## CC(C)c1cccc(C(C)C)c1-n1ccn(-c2c(C(C)C)cccc2C(C)C)[c]1=[Au+][PH](C1CCCCC1)(C1CCCCC1)C1CCCCC1.F[P-](F)(F)(F)(F)F [Complex 6, [Au(IPr)(C18H33P)] PF6]
72 hours treatment, MTT
  IC50: 120 ± 10 nM
  Fold resistance (A2780cis/A2780): 0.86
Listed as complex 6
  Fold resistance (A2780cis/A2780): 0.86
